Where a name gives a salt, the structure may show the parent alone. Read-outs that look alike come from different tables or passages of the source.

What is called IC50 is the concentration that gives 50% inhibition. For orientation: EC50 means the concentration giving half of the maximal effect.

The test system of test [1] is influenza A virus (A/PR/8/34). Description: microbe, parasite or virus in culture. In kind it is cell-based. Particulars: read-out: IC50 (mean all).
For test [2], the system named is A/PR/8/34 influenza virus. The test is described as follows: microbe, parasite or virus in culture. Type of test: cell-based. Particulars: read-out: EC50 (mean all).
Setting [3] is: CPE assay, A/PR/8/34 infected MDCK cells, class symbols.
Where [4] appears, read: bDNA assay, A/PR/8/34 influenza virus replication in MDCK cells, class symbols.
[5] abbreviates: Influenza A virus, PR/8, MDCK, CPE assay, A/PR/8/34 infected MDCK cells, class symbols.
[6] abbreviates: Influenza A virus, PR/8, MDCK, bDNA assay, A/PR/8/34 influenza virus replication in MDCK cells, class symbols.

`C#CC1(O)CCCC(Nc2nc(-c3c[nH]c4ncc(Cl)cc34)ncc2F)C1` (centres unmarked) [Compound 618]: the IC50 in test [1] (setting [3]) was below 5 µM. For the same compound, in test [2] (setting [4]), the EC50 is below 5 µM.
Consider `O=C1NCC(CN2CCCC(Nc3nc(-c4c[nH]c5ncc(Cl)cc45)ncc3F)C2)O1` (centres unmarked) [Compound 619], for which the IC50 in test [1] (setting [3]) is below 5 µM. Further, in test [2] (setting [4]), the EC50 is below 5 µM.
Consider `Cc1cnc(-c2c[nH]c3ncc(Cl)cc23)nc1N[C@H]1CCCN(CC(N)=O)C1` [Compound 620], for which the IC50 in test [1] (setting [5]) lay in the range of 5 to 20 µM. Moreover, the EC50 in test [2] (setting [6]) is below 5 µM.
`Fc1cnc(-c2c[nH]c3ncc(Cl)cc23)nc1NC1CCCN(CC2CCOCC2)C1` (centres unmarked) [Compound 621]: in test [1] (setting [3]), the IC50 was below 5 µM. Further, the concentration for a half-maximal effect (EC50) in test [2] (setting [4]) is below 5 µM.
With `Fc1cnc(-c2c[nH]c3ncc(Cl)cc23)nc1NC1CCCN(CC2CCOC2)C1` (centres unmarked) [Compound 622], in test [1] (setting [3]), the half-inhibitory concentration (IC50) is below 5 µM. For the same compound, the EC50 in test [2] (setting [4]) was below 5 µM.
Turning to `O=C(C(O)CO)N1CCCC(Nc2nc(-c3c[nH]c4ncc(Cl)cc34)ncc2F)C1` (centres unmarked) [Compound 623], the IC50 in test [1] (setting [3]) is below 5 µM. Also, in test [2] (setting [4]), the EC50 was below 5 µM.
`O[C@@H]1[C@@H](O)CCC[C@H]1Nc1nc(-c2c[nH]c3ncc(Cl)cc23)ncc1F` [Compound 624]: in test [1] (setting [5]), the IC50 was below 5 µM. In test [2] (setting [6]), the half-maximal effective concentration (EC50) is 5 to 10 µM.
For the compound `O[C@H]1[C@H](O)CCC[C@@H]1Nc1nc(-c2c[nH]c3ncc(Cl)cc23)ncc1F` [Compound 625], the IC50 in test [1] (setting [5]) is below 5 µM. Also, the EC50 in test [2] (setting [6]) was below 5 µM.
On to `CCC1(O)CCCC(Nc2nc(-c3c[nH]c4ncc(Cl)cc34)ncc2F)C1` (centres unmarked) [Compound 626], for which, in test [1] (setting [5]), the 50% inhibitory concentration (IC50) was below 5 µM. The concentration for a half-maximal effect (EC50) in test [2] (setting [6]) is below 5 µM.
`C=CC1(O)CCCC(Nc2nc(-c3c[nH]c4ncc(Cl)cc34)ncc2F)C1` (centres unmarked) [Compound 627]: the IC50 in test [1] (setting [3]) is below 5 µM. Besides, the EC50 in test [2] (setting [4]) is below 5 µM.
With `C=CC1(O)CCCC(Nc2nc(-c3c[nH]c4ncc(Cl)cc34)ncc2F)C1` (centres unmarked) [Compound 628], the IC50 in test [1] (setting [3]) is below 5 µM. Moreover, the concentration giving a half-maximal response (EC50) in test [2] (setting [4]) was below 5 µM.
Take `CC(C)(C)c1nc(-c2c[nH]c3ncc(Cl)cc23)nc(N[C@H]2CCCC[C@@H]2C(=O)O)c1F` [Compound 629, (1S,2S)-2-(6-tert-butyl-2-(5-chloro-1H-pyrrolo[2,3-b]pyridin-3-yl)-5-fluoropyrimidin-4-ylamino)cyclohexanecarboxylic acid]: the IC50 in test [1] (setting [5]) was below 5 µM. Moreover, the EC50 in test [2] (setting [6]) is below 5 µM.
As to `O=C(O)[C@@H]1CCC[C@H](Nc2nc(-c3c[nH]c4ncc(Cl)cc34)ncc2F)C1` [Compound 630], the half-maximal inhibitory concentration (IC50) in test [1] (setting [5]) is below 5 µM. Also, in test [2] (setting [6]), the concentration for a half-maximal effect (EC50) was below 5 µM.
On to `O[C@H]1[C@@H](O)CCC[C@H]1Nc1nc(-c2c[nH]c3ncc(Cl)cc23)ncc1F` [Compound 631], for which the IC50 in test [1] (setting [5]) is below 5 µM. Also, the EC50 in test [2] (setting [6]) is below 5 µM.
For `O[C@@H]1[C@H](O)CCC[C@@H]1Nc1nc(-c2c[nH]c3ncc(Cl)cc23)ncc1F` [Compound 632], in test [1] (setting [5]), the IC50 is below 5 µM. For the same compound, the concentration for a half-maximal effect (EC50) in test [2] (setting [6]) was below 5 µM.
With `O=C(N[C@@H]1CCC[C@H](Nc2nc(-c3c[nH]c4ncc(Cl)cc34)ncc2F)C1)C1CCCOC1` (stereo partly drawn) [Compound 633, N-[(1R,3S)-3-[[2-(5-chloro-1H-pyrrolo[2,3-b]pyridin-3-yl)-5-fluoro-pyrimidin-4-yl]amino]cyclohexyl]tetrahydropyran-3-carboxamide hydrochloride], in test [1] (setting [5]), the concentration for half-maximal inhibition (IC50) was below 5 µM. The EC50 in test [2] (setting [6]) was below 5 µM.
`O=C(CCO)N[C@@H]1CCC[C@H](Nc2nc(-c3c[nH]c4ncc(Cl)cc34)ncc2F)C1` [Compound 634, N-[(1R,3S)-3-[[2-(5-chloro-1H-pyrrolo[2,3-b]pyridin-3-yl)-5-fluoro-pyrimidin-4-yl]amino]cyclohexyl]-3-hydroxy-propanamide hydrochloride]: in test [1] (setting [5]), the IC50 is below 5 µM. The EC50 in test [2] (setting [6]) is below 5 µM.
On to `CC1(C(=O)N[C@@H]2CCC[C@H](Nc3nc(-c4c[nH]c5ncc(Cl)cc45)ncc3F)C2)COC1` [Compound 635, N-[(1R,3S)-3-[[2-(5-chloro-1H-pyrrolo[2,3-b]pyridin-3-yl)-5-fluoro-pyrimidin-4-yl]amino]cyclohexyl]-3-methyl-oxetane-3-carboxamide hydrochloride], for which, in test [1] (setting [5]), the IC50 is below 5 µM. Also, the EC50 in test [2] (setting [6]) is below 5 µM.
On to `O=C(N[C@@H]1CCC[C@H](Nc2nc(-c3c[nH]c4ncc(Cl)cc34)ncc2F)C1)C1CCOCC1` [Compound 636, N-[(1R,3S)-3-[[2-(5-chloro-1H-pyrrolo[2,3-b]pyridin-3-yl)-5-fluoro-pyrimidin-4-yl]amino]cyclohexyl]tetrahydropyran-4-carboxamide hydrochloride], for which the half-inhibitory concentration (IC50) in test [1] (setting [5]) was below 5 µM. Moreover, the EC50 in test [2] (setting [6]) was below 5 µM.
As to `O=C(N[C@@H]1CCC[C@H](Nc2nc(-c3c[nH]c4ncc(Cl)cc34)ncc2F)C1)C1CNCCO1` (stereo partly drawn) [Compound 637, N-[(1R,3S)-3-[[2-(5-chloro-1H-pyrrolo[2,3-b]pyridin-3-yl)-5-fluoro-pyrimidin-4-yl]amino]cyclohexyl]morpholine-2-carboxamide bishydrochloride], in test [1] (setting [5]), the IC50 was below 5 µM. Also, the EC50 in test [2] (setting [6]) was below 5 µM.
With `O=C(N[C@@H]1CCC[C@H](Nc2nc(-c3c[nH]c4ncc(Cl)cc34)ncc2F)C1)C1CCCO1` (stereo partly drawn) [Compound 638, N-[1R,3S)-3-[[2-(5-chloro-1H-pyrrolo[2,3-b]pyridin-3-yl)-5-fluoro-pyrimidin-4-yl]amino]cyclohexyl]tetrahydrofuran-2-carboxamide hydrochloride], in test [1] (setting [5]), the IC50 is below 5 µM. Besides, the EC50 in test [2] (setting [6]) is below 5 µM.
Consider `O=C(N[C@@H]1CCC[C@H](Nc2nc(-c3c[nH]c4ncc(Cl)cc34)ncc2F)C1)C1CCNCC1` [Compound 639, N-[(1R,3S)-3-[[2-(5-chloro-1H-pyrrolo[2,3-b]pyridin-3-yl)-5-fluoro-pyrimidin-4-yl]amino]cyclohexyl]piperidine-4-carboxamide bishydrochloride], for which the IC50 in test [1] (Influenza A virus, PR/8, MDCK) was above 10 µM. The EC50 in test [2] (Influenza A virus, PR/8, MDCK) is above 3.3 µM.
In the case of `CC(O)CC(=O)N[C@@H]1CCC[C@H](Nc2nc(-c3c[nH]c4ncc(Cl)cc34)ncc2F)C1` (stereo partly drawn) [Compound 640, N-[(1R,3S)-3-[[2-(5-chloro-1H-pyrrolo[2,3-b]pyridin-3-yl)-5-fluoro-pyrimidin-4-yl]amino]cyclohexyl]-3-hydroxy-butanamide hydrochloride], the IC50 in test [1] (setting [5]) was below 5 µM. In addition, the EC50 in test [2] (setting [6]) is below 5 µM.
Take `CC(O)C(=O)N[C@@H]1CCC[C@H](Nc2nc(-c3c[nH]c4ncc(Cl)cc34)ncc2F)C1` (stereo partly drawn) [Compound 642, N-[(1R,3S)-3-[[2-(5-chloro-1H-pyrrolo[2,3-b]pyridin-3-yl)-5-fluoro-pyrimidin-4-yl]amino]cyclohexyl]-2-hydroxy-propanamide hydrochloride]: the IC50 in test [1] (setting [5]) was below 5 µM. The EC50 in test [2] (setting [6]) was below 5 µM.
For the compound `OCC1(O)CCCC(Nc2nc(-c3c[nH]c4ncc(Cl)cc34)ncc2F)C1` (centres unmarked) [Compound 646], in test [1] (setting [5]), the IC50 is below 5 µM. Also, the EC50 in test [2] (setting [6]) was below 5 µM.
As to `O=C(N[C@@H]1CCC[C@H](Nc2nc(-c3c[nH]c4ncc(Cl)cc34)ncc2F)C1)N1CCOCC1` [Compound 647], the half-inhibitory concentration (IC50) in test [1] (setting [5]) is below 5 µM. In addition, the EC50 in test [2] (setting [6]) was below 5 µM.
For `O=C(N[C@@H]1CCC[C@H](Nc2nc(-c3c[nH]c4ncc(Cl)cc34)ncc2F)C1)OCC1CCOC1` (some centres unmarked) [Compound 648], the IC50 in test [1] (setting [5]) is below 5 µM. For the same compound, the concentration giving a half-maximal response (EC50) in test [2] (setting [6]) was below 5 µM.
Consider `O=C(N[C@@H]1CCC[C@H](Nc2nc(-c3c[nH]c4ncc(Cl)cc34)ncc2F)C1)O[C@H]1CCOC1` [Compound 649], for which the IC50 in test [1] (setting [5]) is below 5 µM. The EC50 in test [2] (setting [6]) was below 5 µM.
For the compound `CC(C)(CO)C(=O)N[C@@H]1CCC[C@H](Nc2nc(-c3c[nH]c4ncc(Cl)cc34)ncc2F)C1` [Compound 650, N-[(1R,3S)-3-[[2-(5-chloro-1H-pyrrolo[2,3-b]pyridin-3-yl)-5-fluoro-pyrimidin-4-yl]amino]cyclohexyl]-3-hydroxy-2,2-dimethyl-propanamide hydrochloride], the 50% inhibitory concentration (IC50) in test [1] (setting [5]) is below 5 µM. Moreover, the EC50 in test [2] (setting [6]) was below 5 µM.
Take `O=C(N[C@@H]1CCC[C@H](Nc2nc(-c3c[nH]c4ncc(Cl)cc34)ncc2F)C1)C1CCCCO1` (stereo partly drawn) [Compound 651, N-[(1R,3S)-3-[[2-(5-chloro-1H-pyrrolo[2,3-b]pyridin-3-yl)-5-fluoro-pyrimidin-4-yl]amino]cyclohexyl]tetrahydropyran-2-carboxamide hydrochloride]: in test [1] (setting [5]), the IC50 is below 5 µM. Further, in test [2] (setting [6]), the EC50 was below 5 µM.
Consider `O=C(N[C@@H]1CCC[C@H](Nc2nc(-c3c[nH]c4ncc(Cl)cc34)ncc2F)C1)C1CCOC1` (stereo partly drawn) [Compound 652, N-[(1R,3S)-3-[[2-(5-chloro-1H-pyrrolo[2,3-b]pyridin-3-yl)-5-fluoro-pyrimidin-4-yl]amino]cyclohexyl]tetrahydrofuran-3-carboxamide hydrochloride], for which, in test [1] (setting [5]), the IC50 was below 5 µM. For the same compound, the EC50 in test [2] (setting [6]) was below 5 µM.
Turning to `N#Cc1cnc(-c2c[nH]c3ncc(Cl)cc23)nc1N[C@H]1CCCN(CC(N)=O)C1` [Compound 654], in test [1] (setting [5]), the IC50 fell in the range of 5 to 20 µM. In test [2] (setting [6]), the EC50 was 5 to 10 µM.
With `Cc1ccc(S(=O)(=O)n2cc(-c3ncc(F)c(N[C@H]4CCCC(C)(O)C4)n3)c3cc(Cl)cnc32)cc1` (some centres unmarked) [Compound 655], the IC50 in test [1] (setting [3]) is below 5 µM. Besides, the half-maximal effective concentration (EC50) in test [2] (setting [4]) was below 5 µM.
With `Cc1ccc(S(=O)(=O)n2cc(-c3ncc(F)c(N[C@H]4CCCC(C)(O)C4)n3)c3cc(Cl)cnc32)cc1` (some centres unmarked) [Compound 656], the IC50 in test [1] (setting [3]) was below 5 µM. In test [2] (setting [4]), the EC50 is below 5 µM.
For `OC[C@H]1CC(Nc2nc(-c3c[nH]c4ncc(Cl)cc34)ncc2F)[C@H](O)[C@@H]1O` (some centres unmarked) [Compound 657], the IC50 in test [1] (setting [5]) was above 10 µM. Further, the concentration for a half-maximal effect (EC50) in test [2] (setting [6]) is above 3.3 µM.
On to `O=C(C1CCCCO1)N1CCCC(Nc2nc(-c3c[nH]c4ncc(Cl)cc34)ncc2F)C1` (centres unmarked) [Compound 658], for which the IC50 in test [1] (setting [3]) was below 5 µM. The EC50 in test [2] (setting [4]) is below 5 µM.
With `O=C(C1CCCO1)N1CCCC(Nc2nc(-c3c[nH]c4ncc(Cl)cc34)ncc2F)C1` (centres unmarked) [Compound 660], the IC50 in test [1] (setting [3]) is below 5 µM. In addition, the concentration giving a half-maximal response (EC50) in test [2] (setting [4]) was below 5 µM.

The record behind these values is patent US8829007B2 (priority 2009, dated 2014).
